What was measured:
Experiment in all cases: NCI-60 one-dose assay
Assay type in all cases: cell-based
786-0 = settings: Homo sapiens, 786-0 (Renal Cancer), read-out: Cell Inhibition Percent
Procedure: (§1) The final compounds were submitted to the National Cancer Institute, Bethesda, USA, for screening in vitro for anti-cancer. […] compounds, 4a–j, 5, and 6, were selected according to the Development Therapeutic Program (DTP) protocol. The selected compounds were evaluated for their in vitro cytotoxic activity against a panel of sixty cancer cell lines (NCI-60 cell line panel) derived from six cell lines panel of leukemia, nine cell lines of lung cancer, six cell lines of CNS cancer, seven cell lines of colon cancer, eight cell lines of melanoma, six cell lines of ovarian cancer, eight cell lines of renal cancer, two cell lines of prostate cancer, and eight cell lines of breast cancer, representing the full nine human systems as leukemia, melanoma, and cancers of the lung, colon, brain, breast, ovary, kidney, and prostate.
(§2) The selected compounds 4a–j, 5, and 6 were tested at a single concentration of 10 µM. The screening results for the selected compounds are illustrated in Table 1.
(§3) The NCI anti-cancer screening methodology has been described in detail elsewhere (http://www.dtp.nci.nih.gov, accessed on 20 February 2021). Following the Drug Evaluation Branch protocol, National Cancer Institute, Bethesda, USA, a primary anti-cancer assay was performed on approximately 60 human tumor cell line panels derived from nine neoplastic diseases.

A498 = settings: Homo sapiens, A498 (Renal Cancer), read-out: Cell Inhibition Percent
Procedure: as §1, §2, §3

A549/ATCC = settings: Homo sapiens, A549/ATCC (Non-Small Cell Lung Cancer), read-out: Cell Inhibition Percent
Procedure: as §1, §2, §3

ACHN = settings: Homo sapiens, ACHN (Renal Cancer), read-out: Cell Inhibition Percent
Procedure: as §1, §2, §3

CCRF-CEM = settings: Homo sapiens, CCRF-CEM (Leukemia), read-out: Cell Inhibition Percent
Procedure: as §1, §2, §3

HCC-2998 = settings: Homo sapiens, HCC-2998 (Colon Cancer), read-out: Cell Inhibition Percent
Procedure: as §1, §2, §3

HCT-116 = settings: Homo sapiens, HCT-116 (Colon Cancer), read-out: Cell Inhibition Percent
Procedure: as §1, §2, §3

HCT-15 = settings: Homo sapiens, HCT-15 (Colon Cancer), read-out: Cell Inhibition Percent
Procedure: as §1, §2, §3

HL-60(TB) = settings: Homo sapiens, HL-60(TB) (Leukemia), read-out: Cell Inhibition Percent
Procedure: as §1, §2, §3

HOP-62 = settings: Homo sapiens, HOP-62 (Non-Small Cell Lung Cancer), read-out: Cell Inhibition Percent
Procedure: as §1, §2, §3

HS 578T = settings: Homo sapiens, HS 578T (Breast Cancer), read-out: Cell Inhibition Percent
Procedure: as §1, §2, §3

HT29 = settings: Homo sapiens, HT-29, HT29 (Colon Cancer), read-out: Cell Inhibition Percent
Procedure: as §1, §2, §3

K-562 = settings: Homo sapiens, K562, K-562 (Leukemia), read-out: Cell Inhibition Percent
Procedure: as §1, §2, §3

M14 = settings: Homo sapiens, M14 (Melanoma), read-out: Cell Inhibition Percent
Procedure: as §1, §2, §3

MALME-3M = settings: Homo sapiens, MALME-3M (Melanoma), read-out: Cell Inhibition Percent
Procedure: as §1, §2, §3

MDA-MB-468 = settings: Homo sapiens, MDA-MB-468 (Breast Cancer), read-out: Cell Inhibition Percent
Procedure: as §1, §2, §3

MOLT-4 = settings: Homo sapiens, MOLT-4 (Leukemia), read-out: Cell Inhibition Percent
Procedure: as §1, §2, §3

NCI-H23 = settings: Homo sapiens, NCI-H23 (Non-Small Cell Lung Cancer), read-out: Cell Inhibition Percent
Procedure: as §1, §2, §3

NCI-H460 = settings: Homo sapiens, NCI-H460 (Non-Small Cell Lung Cancer), read-out: Cell Inhibition Percent
Procedure: as §1, §2, §3

NCI-H522 = settings: Homo sapiens, NCI-H522 (Non-Small Cell Lung Cancer), read-out: Cell Inhibition Percent
Procedure: as §1, §2, §3

OVCAR-4 = settings: Homo sapiens, OVCAR-4 (ovarian cancer), read-out: Cell Inhibition Percent
Procedure: as §1, §2, §3

OVCAR-5 = settings: Homo sapiens, OVCAR-5 (ovarian cancer), read-out: Cell Inhibition Percent
Procedure: as §1, §2, §3

PC-3 = settings: Homo sapiens, PC-3 (Prostate Cancer), read-out: Cell Inhibition Percent
Procedure: as §1, §2, §3

RXF 393 = settings: Homo sapiens, RXF 393 (Renal Cancer), read-out: Cell Inhibition Percent
Procedure: as §1, §2, §3

SF-268 = settings: Homo sapiens, SF-268 (CNS cancer), read-out: Cell Inhibition Percent
Procedure: as §1, §2, §3

SF-539 = settings: Homo sapiens, SF-539 (CNS cancer), read-out: Cell Inhibition Percent
Procedure: as §1, §2, §3

SK-MEL-5 = settings: Homo sapiens, SK-MEL-5 (Melanoma), read-out: Cell Inhibition Percent
Procedure: as §1, §2, §3

SNB-19 = settings: Homo sapiens, SNB-19 (CNS cancer), read-out: Cell Inhibition Percent
Procedure: as §1, §2, §3

SNB-75 = settings: Homo sapiens, SNB-75 (CNS cancer), read-out: Cell Inhibition Percent
Procedure: as §1, §2, §3

SW-620 = settings: Homo sapiens, SW-620 (Colon Cancer), read-out: Cell Inhibition Percent
Procedure: as §1, §2, §3

T-47D = settings: Homo sapiens, T47D, T-47D (Breast Cancer), read-out: Cell Inhibition Percent
Procedure: as §1, §2, §3

| Structure (SMILES) | inhibition at 10 µM (786-0) [%] | inhibition at 10 µM (A498) [%] | inhibition at 10 µM (A549/ATCC) [%] | inhibition at 10 µM (ACHN) [%] | inhibition at 10 µM (CCRF-CEM) [%] | inhibition at 10 µM (HCC-2998) [%] | inhibition at 10 µM (HCT-116) [%] | inhibition at 10 µM (HCT-15) [%] | inhibition at 10 µM (HL-60(TB)) [%] | inhibition at 10 µM (HOP-62) [%] | inhibition at 10 µM (HS 578T) [%] | inhibition at 10 µM (HT29) [%] | inhibition at 10 µM (K-562) [%] | inhibition at 10 µM (M14) [%] | inhibition at 10 µM (MALME-3M) [%] | inhibition at 10 µM (MDA-MB-468) [%] | inhibition at 10 µM (MOLT-4) [%] | inhibition at 10 µM (NCI-H23) [%] | inhibition at 10 µM (NCI-H460) [%] | inhibition at 10 µM (NCI-H522) [%] | also measured |
| --- | --- | --- | --- | --- | --- | --- | --- | --- | --- | --- | --- | --- | --- | --- | --- | --- | --- | --- | --- | --- | --- |
| O=C(NN=Cc1ccccc1)c1ccc2[nH]c(-c3ccc(Cl)cc3)nc2c1 [Compound 4a, N′-Benzylidene-2-(4-chlorophenyl)-1H-benzimidazole-5-carbohydrazide] | 11.6 | 22.1 | 0 | 3.26 | 11.2 | 0 | 0 | 4.81 | 0 | 0 | 7.92 | 3.67 | 7.37 | 8.89 | 1.28 | 0 | 12.9 | 1.85 | 0 | 1 | inhibition at 10 µM (OVCAR-4): 0%; inhibition at 10 µM (OVCAR-5): 0%; inhibition at 10 µM (PC-3): 0%; inhibition at 10 µM (RXF 393): 15.5%; inhibition at 10 µM (SF-268): 0%; inhibition at 10 µM (SF-539): 9.57%; inhibition at 10 µM (SK-MEL-5): 4.85%; inhibition at 10 µM (SNB-19): 0%; inhibition at 10 µM (SNB-75): 10.7%; inhibition at 10 µM (SW-620): 0%; inhibition at 10 µM (T-47D): 18.2% |
| CN(C)c1ccc(C=NNC(=O)c2ccc3[nH]c(-c4ccc(Cl)cc4)nc3c2)cc1 [Compound 4b, N′-(4-(Dimethylamino)benzylidene)-2-(4-chlorophenyl)-1H-benzimidazole-5-carbohydrazide] | 0 | 12.9 | 0 | 1.36 | 6.5 | 6.31 | 4.7 | 0 | 0 | 2.51 | 6.32 | 2.26 | 5.96 | 3.58 | 12.9 | 0 | 3.18 | 1.51 | 2.77 | 3.02 | inhibition at 10 µM (OVCAR-4): 0%; inhibition at 10 µM (OVCAR-5): 0%; inhibition at 10 µM (PC-3): 4.81%; inhibition at 10 µM (RXF 393): 7.79%; inhibition at 10 µM (SF-268): 0.73%; inhibition at 10 µM (SF-539): 5.22%; inhibition at 10 µM (SK-MEL-5): 5.02%; inhibition at 10 µM (SNB-19): 0%; inhibition at 10 µM (SNB-75): 0.61%; inhibition at 10 µM (SW-620): 0%; inhibition at 10 µM (T-47D): 14.1% |
| O=C(NN=Cc1ccc([N+](=O)[O-])cc1)c1ccc2[nH]c(-c3ccc(Cl)cc3)nc2c1 [Compound 4c, N′-(4-Nitrobenzylidene)-2-(4-chlorophenyl)-1H-benzimidazole-5-carbohydrazide] | 51 | 100 | 65.5 | 67.7 | 90.1 | 85.1 | 85.4 | 70.1 | 93.4 | 55.2 | 63.2 | 91.8 | 90.3 | 74.1 | 92.2 | 139 | 95.8 | 83.8 | 94.6 | 67 | inhibition at 10 µM (OVCAR-4): 77%; inhibition at 10 µM (OVCAR-5): 46.8%; inhibition at 10 µM (PC-3): 78.6%; inhibition at 10 µM (RXF 393): 68.4%; inhibition at 10 µM (SF-268): 51.5%; inhibition at 10 µM (SF-539): 58.3%; inhibition at 10 µM (SK-MEL-5): 97.4%; inhibition at 10 µM (SNB-19): 48%; inhibition at 10 µM (SNB-75): 30.7%; inhibition at 10 µM (SW-620): 87.3%; inhibition at 10 µM (T-47D): 89.5% |
| O=C(NN=Cc1ccc(F)cc1)c1ccc2[nH]c(-c3ccc(Cl)cc3)nc2c1 [Compound 4d, N′-(4-Fluorobenzylidene)-2-(4-chlorophenyl)-1H-benzimidazole-5-carbohydrazide] | 87.8 | 27.1 | 82.2 | 64.3 | 78.6 | 21 | 51.4 | 33.2 | 62.6 | 39.5 | 30 | 95.7 | 61.2 | 39.8 | 88.2 | 23.9 | 76.5 | 38.6 | 63.8 | 3.87 | inhibition at 10 µM (OVCAR-4): 63.6%; inhibition at 10 µM (OVCAR-5): 10.8%; inhibition at 10 µM (PC-3): 53.2%; inhibition at 10 µM (RXF 393): 22.6%; inhibition at 10 µM (SF-268): 21.8%; inhibition at 10 µM (SF-539): 12%; inhibition at 10 µM (SK-MEL-5): 11%; inhibition at 10 µM (SNB-19): 39.6%; inhibition at 10 µM (SNB-75): 2.77%; inhibition at 10 µM (SW-620): 53.7%; inhibition at 10 µM (T-47D): 40.6% |
| O=C(NN=Cc1ccc(Cl)cc1)c1ccc2[nH]c(-c3ccc(Cl)cc3)nc2c1 [Compound 4e, N′-(4-Chlorobenzylidene)-2-(4-chlorophenyl)-1H-benzimidazole-5-carbohydrazide] | 142 | 43.9 | 127 | 120 | 84.5 | 96.3 | 102 | 95.3 | 94.2 | 92 | 67 | 98.3 | 91.3 | 80.3 | 159 | 144 | 95.5 | 100 | 134 | 36.8 | inhibition at 10 µM (OVCAR-4): 118%; inhibition at 10 µM (OVCAR-5): 76.3%; inhibition at 10 µM (PC-3): 125%; inhibition at 10 µM (RXF 393): 81.1%; inhibition at 10 µM (SF-268): 62%; inhibition at 10 µM (SF-539): 62.9%; inhibition at 10 µM (SK-MEL-5): 63.8%; inhibition at 10 µM (SNB-19): 95.7%; inhibition at 10 µM (SNB-75): 1.6%; inhibition at 10 µM (SW-620): 128%; inhibition at 10 µM (T-47D): 113% |

Reference: article PMC10819888, “Benzimidazole-Based Derivatives as Apoptotic Antiproliferative Agents: Design, Synthesis, Docking, and Mechanistic Studies” (Molecules, 2024)
